Data taken from ChEMBL document CHEMBL1121768, “Synthesis and platelet aggregation inhibitory activity of 4,5-bis(aryl)-2-substituted-thiazoles” (J Med Chem, 1981).
Converted amounts (≈) assume the structure as drawn.

Experiments:
Format in all cases: functional
Homo sapiens = species on record: Homo sapiens; test: In vitro inhibition of collagen-induced platelet aggregation in human platelet rich plasma
Cavia porcellus [1] = test: Percent inhibition of platelet aggregation following oral administration to guinea pigs at a dose of 5 mg/kg
Cavia porcellus [2] = test: Percent inhibition of platelet aggregation following oral administration to guinea pigs at a dose of 10 mg/kg
Cavia porcellus [3] = test: Percent inhibition of platelet aggregation following oral administration to guinea pigs at a dose of 1 mg/kg
Cavia porcellus [4] = species on record: Cavia porcellus; test: In vitro inhibition of collagen-induced platelet aggregation in guinea pig platelet rich plasma
Cavia porcellus [5] = test: Percent inhibition of platelet aggregation at 2 hours following oral administration to guinea pigs at 5 mg/kg
Cavia porcellus [6] = test: Percent inhibition of platelet aggregation at 4 hours following oral administration to guinea pigs at 5 mg/kg
Cavia porcellus [7] = test: Percent inhibition of platelet aggregation at 12 hours following oral administration to guinea pigs at 5 mg/kg
Cavia porcellus [8] = test: Percent inhibition of platelet aggregation at 24 hours following oral administration to guinea pigs at 5 mg/kg
Cavia porcellus [9] = test: Percent inhibition of platelet aggregation following oral administration to guinea pigs at a dose of 0.1 mg/kg
Cavia porcellus [10] = test: Percent inhibition of platelet aggregation at 0 hours following oral administration to guinea pigs at 5 mg/kg
Cavia porcellus [11] = test: Percent inhibition of platelet aggregation at 8 hours following oral administration to guinea pigs at 5 mg/kg
Cavia porcellus [12] = test: Percent inhibition of platelet aggregation at 16 hours following oral administration to guinea pigs at 5 mg/kg
Cavia porcellus [13] = test: Percent inhibition of platelet aggregation following oral administration to guinea pigs at a dose of 0.5 mg/kg

| SMILES | IC50 (Homo sapiens) [mg/L] | inhibition in vivo at 5 mg/kg (Cavia porcellus [1]) [%] | inhibition in vivo at 10 mg/kg (Cavia porcellus [2]) [%] | inhibition in vivo at 1 mg/kg (Cavia porcellus [3]) [%] | IC50 (Cavia porcellus [4]) [mg/L] | also measured |
| --- | --- | --- | --- | --- | --- | --- |
| CC(=O)Oc1ccccc1C(=O)O [ASPIRIN] | 10 (≈ 55.5 µM) | – | – | – | – | – |
| COc1ccc(-c2ncsc2-c2ccc(OC)cc2)cc1 | 0.032 (≈ 0.108 µM) | – | – | – | – | – |
| COC(=O)C(C)(C)c1nc(-c2ccc(OC)cc2)c(-c2ccc(OC)cc2)s1 | 0.0032 (≈ 0.00805 µM) | 100 | 100 | 27 | 0.01 (≈ 0.0252 µM) | – |
| COC(=O)Cc1nc(-c2ccc(OC)cc2)c(-c2ccc(OC)cc2)s1 | 0.0001 (≈ 0.000271 µM) | – | – | – | – | – |
| CC(C(=O)O)c1ccc(-c2ccccc2)c(F)c1 (centres undefined) [FLURBIPROFEN] | 0.32 (≈ 1.31 µM) | – | – | – | 0.32 (≈ 1.31 µM) | – |
| COc1ccc(-c2nc(C(C)C)sc2-c2ccc(OC)cc2)cc1 | 0.0032 (≈ 0.00943 µM) | 85 | 100 | 6 | 0.01 (≈ 0.0295 µM) | – |
| COc1ccc(-c2nc(CC(=O)[O-])sc2-c2ccc(OC)cc2)cc1.[Li+] | 0.032 | – | – | – | – | – |
| COc1ccc(-c2nc(CCO)sc2-c2ccc(OC)cc2)cc1 | 0.00032 (≈ 0.000937 µM) | 79 | 100 | 9 | 0.0032 (≈ 0.00937 µM) | – |
| COc1ccc(-c2nc(C(C)(C)CO)sc2-c2ccc(OC)cc2)cc1 | 0.0032 (≈ 0.00866 µM) | – | – | – | 0.01 (≈ 0.0271 µM) | – |
| COc1ccc(-c2nc(C)sc2-c2ccc(OC)cc2)cc1 | 0.00032 (≈ 0.00103 µM) | – | – | – | – | – |
| FC(F)(F)c1nc(-c2ccc(Cl)cc2)c(-c2ccc(Cl)cc2)s1 | 0.032 (≈ 0.0855 µM) | – | – | – | – | – |
| FC(F)(F)c1nc(-c2ccccc2)c(-c2ccccc2)s1 | 0.32 (≈ 1.05 µM) | – | – | – | – | – |
| COc1ccc(-c2nc(CC(N)=O)sc2-c2ccc(OC)cc2)cc1 | 0.0032 (≈ 0.00903 µM) | 96 | 100 | 39 | – | – |
| COc1ccc(-c2nc(C(F)(F)F)sc2-c2ccc(OC)cc2)cc1 [ITAZIGREL] | 0.001 (≈ 0.00274 µM) | 100 | 100 | 83 | 0.01 (≈ 0.0274 µM) | inhibition in vivo at 5 mg/kg (Cavia porcellus [5]): 97%; inhibition in vivo at 5 mg/kg (Cavia porcellus [6]): 68.5%; inhibition in vivo at 5 mg/kg (Cavia porcellus [7]): 48.7%; inhibition in vivo at 5 mg/kg (Cavia porcellus [8]): 10.3%; inhibition in vivo at 0.1 mg/kg (Cavia porcellus [9]): 6%; inhibition in vivo at 5 mg/kg (Cavia porcellus [10]): 0%; inhibition in vivo at 5 mg/kg (Cavia porcellus [11]): 93.2%; inhibition in vivo at 5 mg/kg (Cavia porcellus [12]): 16.2%; inhibition in vivo at 0.5 mg/kg (Cavia porcellus [13]): 68.5% |
